Assay results published in ChEMBL document CHEMBL1201862, “PubChem BioAssay data set” (2004).
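Cells were grown in 96-well plates and exposed to each compound for 48 hours at five concentrations; endpoints were interpolated linearly between bracketing concentrations, or set to the highest concentration if not reached. GI50 is the concentration that inhibits growth by half.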 The source made the active and inactive calls. Rule as the data show it: active = GI50 up to about 1.1 µM and inactive = higher.

How the values were obtained:
Assay in all cases: DTP human tumour cell line panel, 48 h
HOP-62 = system: HOP-62
SK-MEL-2 = system: SK-MEL-2
OVCAR-8 = system: OVCAR-8
HCC 2998 = system: HCC 2998
NCI-H226 = system: NCI-H226
Malme-3M = system: Malme-3M
LOX IMVI = system: LOX IMVI
RPMI-8226 = system: RPMI-8226
SN12C = system: SN12C
SK-MEL-28 = system: SK-MEL-28
HCT-116 = system: HCT-116
TK-10 = system: TK-10
SNB-75 = system: SNB-75
HCT-15 = system: HCT-15
SR = system: SR
K562 = system: K562
CAKI-1 = system: CAKI-1

Measured: GI50

COc1ccc(/C(=N\NC(=O)C(N)=O)C(c2ccc(OC)cc2)C2(O)C(=O)Nc3c(Cl)cccc32)cc1 (centres undefined)
inactive: HOP-62 > 100 µM | SK-MEL-2 > 100 µM | OVCAR-8 > 100 µM | HCC 2998 > 100 µM | NCI-H226 > 100 µM | Malme-3M > 100 µM | LOX IMVI 58.6 µM | RPMI-8226 > 100 µM | SN12C > 100 µM | SK-MEL-28 > 100 µM | HCT-116 > 100 µM | TK-10 > 100 µM | SNB-75 > 100 µM

N#CCCN(CCC#N)c1ccc(/C=C2\N=C(c3cc([N+](=O)[O-])ccc3Cl)OC2=O)cc1
53.2 µM: HCT-15
inactive: HOP-62 35.4 µM | SK-MEL-2 20 µM | OVCAR-8 19.1 µM | HCC 2998 21.6 µM | SR 33.3 µM | NCI-H226 22.4 µM | Malme-3M > 100 µM | K562 18.2 µM | LOX IMVI 23.7 µM | CAKI-1 > 100 µM | RPMI-8226 88.7 µM | SN12C 19.9 µM | SK-MEL-28 52.6 µM | HCT-116 > 100 µM | SNB-75 23.9 µM

COc1cc2c(c(O)c1C)C(=O)CC(c1ccccc1)O2 (centres undefined)
inactive: HOP-62 > 100 µM | SK-MEL-2 24.9 µM | OVCAR-8 > 100 µM | HCC 2998 79.8 µM | NCI-H226 18.4 µM | Malme-3M 91.4 µM | K562 50.2 µM | LOX IMVI > 10 µM | CAKI-1 94.8 µM | SN12C 37.5 µM | SK-MEL-28 > 100 µM | HCT-116 31.7 µM | TK-10 32.2 µM | SNB-75 28.8 µM
66.4 µM: HCT-15

NC(=S)N/N=C/c1nccc2ccccc12
0.975 µM: HCT-15
inactive: SK-MEL-2 2.7 µM | K562 2.73 µM | RPMI-8226 1.22 µM | SK-MEL-28 2.37 µM | TK-10 4.93 µM
active: HOP-62 0.619 µM | OVCAR-8 0.313 µM | HCC 2998 0.664 µM | SR 0.664 µM | Malme-3M 0.0337 µM | LOX IMVI 0.322 µM | CAKI-1 0.738 µM | SN12C 0.682 µM | HCT-116 0.914 µM | SNB-75 0.578 µM

CN(Cc1ccccc1)C1(N(C)Cc2ccccc2)CC1
inactive: HOP-62 > 100 µM | SK-MEL-2 > 100 µM | OVCAR-8 > 100 µM | HCC 2998 > 100 µM | NCI-H226 > 100 µM | Malme-3M > 100 µM | K562 > 100 µM | LOX IMVI > 100 µM | CAKI-1 > 100 µM | SN12C > 100 µM | SK-MEL-28 > 100 µM | HCT-116 > 100 µM | TK-10 > 100 µM | SNB-75 > 100 µM
> 100 µM: HCT-15

O=C1C(C2=[N+]([O-])c3ccccc3C2=O)=[N+]([O-])c2ccccc21
inactive: OVCAR-8 24.7 µM | SR 22.5 µM | NCI-H226 25.5 µM | K562 19.7 µM | LOX IMVI 15.6 µM | RPMI-8226 20.2 µM | SK-MEL-28 42.9 µM | TK-10 35.4 µM | SNB-75 35.1 µM

C/C(=C(/C)c1cc[n+](C)cc1)c1cc[n+](C)cc1
inactive: HOP-62 > 75 µM | SK-MEL-2 > 75 µM | OVCAR-8 > 75 µM | Malme-3M > 75 µM | K562 54.8 µM | LOX IMVI 43.6 µM | CAKI-1 > 75 µM | RPMI-8226 28 µM | SN12C > 75 µM | SK-MEL-28 > 75 µM | HCT-116 > 75 µM | TK-10 > 75 µM | SNB-75 > 75 µM
52.7 µM: HCT-15

CC1=CP(=O)(OC(C)C)C=C(C)C1=C(Cl)Cl (centres undefined)
46 µM: HCT-15
inactive: HOP-62 > 100 µM | SK-MEL-2 20.3 µM | OVCAR-8 68.7 µM | HCC 2998 > 100 µM | SR 35.5 µM | NCI-H226 26.2 µM | Malme-3M > 100 µM | K562 42 µM | LOX IMVI 57 µM | RPMI-8226 32.7 µM | SN12C 36.1 µM | SK-MEL-28 63.5 µM | HCT-116 24.9 µM | TK-10 > 100 µM | SNB-75 > 100 µM

COc1cc(Nc2nc3ccccc3nc2-c2cccs2)cc(OC)c1OC
19 µM: HCT-15
inactive: HOP-62 39.4 µM | SK-MEL-2 85.3 µM | OVCAR-8 > 10 µM | HCC 2998 36.4 µM | SR 26.1 µM | NCI-H226 66.7 µM | Malme-3M 67.9 µM | LOX IMVI 45.6 µM | RPMI-8226 26.9 µM | SN12C 30.9 µM | SK-MEL-28 52.1 µM | HCT-116 28.1 µM | TK-10 35.8 µM | SNB-75 40.6 µM

CC1=Nc2ccccc2SC(c2c(Cl)cccc2Cl)C1 (centres undefined)
1.19 µM: HCT-15
inactive: HOP-62 2.15 µM | HCC 2998 1.6 µM | NCI-H226 1.51 µM | Malme-3M 1.61 µM | CAKI-1 2.1 µM | SN12C 1.33 µM | SK-MEL-28 1.36 µM | TK-10 2.22 µM | SNB-75 1.91 µM
active: OVCAR-8 0.229 µM | K562 0.327 µM | LOX IMVI 0.277 µM | RPMI-8226 0.314 µM | HCT-116 0.225 µM
